According to ChEMBL document CHEMBL3244132, “Semisynthetic aminoglycoside antibacterials. 6. Synthesis of sisomicin, Antibiotic G-52, and novel 6'-substituted analogues of sisomicin from aminoglycoside 66-40C” (J Med Chem, 1978):
In brackets after ≈: the same amount, converted by molar mass. Activity calls are given as the source filed them. The calls are words filed in the database; no cut-off is given here.

Assays:
[1] = tested on: Proteus mirabilis; experiment: Antimicrobial activity against Proteus mirabilis Harding by tube dilution method; assay type: functional
[2] = tested on: Streptococcus pyogenes; experiment: Antimicrobial activity against Streptococcus pyogenes C by tube dilution method; assay type: functional
[3] = tested on: Staphylococcus aureus; experiment: Antimicrobial activity against Staphylococcus aureus 59N by tube dilution method; assay type: functional
[4] = tested on: Klebsiella pneumoniae; experiment: Antimicrobial activity against Klebsiella pneumoniae Adler 17 carrying APH(3')-I by tube dilution method; assay type: functional
[5] = tested on: Escherichia coli; experiment: Antimicrobial activity against Escherichia coli Baker 2 carrying APH(3')-I by tube dilution method; assay type: functional
[6] = tested on: Providencia; experiment: Antimicrobial activity against Providencia 164 carrying AAC(2')-I by tube dilution method; assay type: functional
[7] = tested on: Escherichia coli; experiment: Antimicrobial activity against Escherichia coli LA290R55 carrying ANT(2'') by tube dilution method; assay type: functional
[8] = tested on: Pseudomonas aeruginosa; experiment: Antimicrobial activity against Pseudomonas aeruginosa St. M. 762 by tube dilution method; assay type: functional
[9] = tested on: Streptococcus pyogenes; experiment: Antimicrobial activity against Streptococcus pyogenes Alvarez by tube dilution method; assay type: functional
[10] = tested on: Providencia rettgeri; experiment: Antimicrobial activity against Providencia rettgeri Membel by tube dilution method; assay type: functional
[11] = tested on: Klebsiella pneumoniae; experiment: Antimicrobial activity against Klebsiella pneumoniae Georgetown 3694 carrying APH(2'') by tube dilution method; assay type: functional
[12] = tested on: Escherichia coli; experiment: Antimicrobial activity against Escherichia coli JR88 carrying AAC(3) by tube dilution method; assay type: functional
[13] = tested on: Pseudomonas aeruginosa; experiment: Antimicrobial activity against Pseudomonas aeruginosa St. M. 1395 by tube dilution method; assay type: functional
[14] = tested on: Providencia rettgeri; experiment: Antimicrobial activity against Providencia rettgeri Anderson by tube dilution method; assay type: functional
[15] = tested on: Entamoeba histolytica; experiment: Antiprotozoal activity against Entamoeba histolytica JH; assay type: functional
[16] = tested on: Histomonas meleagridis; experiment: Antiprotozoal activity against Histomonas meleagridis; assay type: functional
[17] = tested on: Bacillus subtilis; experiment: Antimicrobial activity against Bacillus subtilis ATCC 6633 by tube dilution method; assay type: functional
[18] = tested on: Pseudomonas aeruginosa; experiment: Antimicrobial activity against Pseudomonas aeruginosa Stone 130 carrying AAC(3) by tube dilution method; assay type: functional
[19] = tested on: Streptococcus pyogenes; experiment: Antimicrobial activity against Streptococcus pyogenes 27 by tube dilution method; assay type: functional
[20] = tested on: Salmonella typhimurium; experiment: Antimicrobial activity against Salmonella typhimurium Gr. B. by tube dilution method; assay type: functional, Salmonella enterica subsp. enterica serovar Typhimurium; conditions: Salmonella enterica
[21] = tested on: Staphylococcus aureus; experiment: Antimicrobial activity against Staphylococcus aureus Wood by tube dilution method; assay type: functional
[22] = tested on: Streptococcus pyogenes; experiment: Antimicrobial activity against Streptococcus pyogenes Group A Cruz by tube dilution method; assay type: functional
[23] = tested on: Staphylococcus aureus; experiment: Antimicrobial activity against Staphylococcus aureus 209 P by tube dilution method; assay type: functional
[24] = tested on: Escherichia coli; experiment: Antimicrobial activity against Escherichia coli HL97/W677 carrying AAC(6') by tube dilution method; assay type: functional
[25] = Acute toxicity in albino CF1 mouse; assay type: organism-based; conditions: in vivo
[26] = tested on: Escherichia coli; experiment: Antimicrobial activity against Escherichia coli ATCC 10536 by tube dilution method; assay type: functional
[27] = tested on: Staphylococcus aureus; experiment: Antimicrobial activity against Staphylococcus aureus Ziegler by tube dilution method; assay type: functional
[28] = tested on: Trichomonas vaginalis; experiment: Antiprotozoal activity against Trichomonas vaginalis after 48 hrs; assay type: functional
[29] = tested on: Pseudomonas aeruginosa; experiment: Antimicrobial activity against Pseudomonas aeruginosa GN 315 carrying AAC(6') by tube dilution method; assay type: functional
[30] = tested on: Serratia marcescens; experiment: Antimicrobial activity against Serratia marcescens Dalton by tube dilution method; assay type: functional
[31] = tested on: Heligmosomoides polygyrus; experiment: Anthelmintic activity against Nematospiroides dubius infected in mouse at 195 mg/kg qd for 5 days administered after 2 weeks of infection; assay type: functional, organism-based; parameters: dose 195 mg/kg
[32] = tested on: Histomonas meleagridis; experiment: Antiprotozoal activity against Histomonas meleagridis at 20 ug/ml; assay type: functional
[33] = tested on: Syphacia obvelata; experiment: Anthelmintic activity against Syphacia obvelata infected in mouse at 195 mg/kg qd for 5 days administered after 2 weeks of infection; assay type: functional, organism-based; parameters: dose 195 mg/kg
[34] = tested on: Rodentolepis nana; experiment: Anthelmintic activity against Hymenolepis nana infected in mouse at 195 mg/kg qd for 5 days administered after 2 weeks of infection; assay type: functional, organism-based; parameters: dose 195 mg/kg

Structure (SMILES)	MIC [1] [µg/mL]	MIC [2] [µg/mL]	MIC [4] [µg/mL]	MIC [5] [µg/mL]	MIC [6] [µg/mL]	MIC [7] [µg/mL]	MIC [8] [µg/mL]	MIC [9] [µg/mL]	MIC [10] [µg/mL]	MIC [11] [µg/mL]	MIC [12] [µg/mL]	MIC [13] [µg/mL]	MIC [14] [µg/mL]	MIC [17] [µg/mL]	MIC [18] [µg/mL]	MIC [20] [µg/mL]	MIC [21] [µg/mL]	MIC [22] [µg/mL]	MIC [23] [µg/mL]	MIC [24] [µg/mL]	other results
CN[C@@H]1[C@@H](O)[C@@H](O[C@@H]2[C@@H](O)[C@H](O[C@H]3OC(CNCCc4ccccc4)=CC[C@H]3N)[C@@H](N)C[C@H]2N)OC[C@]1(C)O	> 25	> 25	> 25	7.5 (≈ 13.6 µM)	> 25	> 25	> 25	> 25	> 25	> 25	> 25	> 25	> 25	0.03 (≈ 0.0544 µM)	> 25	17.5 (≈ 31.7 µM)	3 (≈ 5.44 µM)	> 25	3 (≈ 5.44 µM)	0.75 (≈ 1.36 µM)	MIC [3]: 3 µg/mL (≈ 5.44 µM); Activity [15]: inactive; Activity [16]: inactive; MIC [19]: 17.5 µg/mL (≈ 31.7 µM); LD50 [25]: 30 mg/kg; MIC [26]: 0.75 µg/mL (≈ 1.36 µM); MIC [27]: 7.5 µg/mL (≈ 13.6 µM); Activity [28]: inactive; MIC [29]: > 25 µg/mL; MIC [30]: > 25 µg/mL
CN[C@@H]1[C@@H](O)[C@@H](O[C@@H]2[C@@H](O)[C@H](O[C@H]3OC(CNC(C)(C)C)=CC[C@H]3N)[C@@H](N)C[C@H]2N)OC[C@]1(C)O	3 (≈ 5.96 µM)	17.5 (≈ 34.7 µM)	7.5 (≈ 14.9 µM)	7.5 (≈ 14.9 µM)	17.5 (≈ 34.7 µM)	17.5 (≈ 34.7 µM)	7.5 (≈ 14.9 µM)	> 25	3 (≈ 5.96 µM)	> 25	> 25	17.5 (≈ 34.7 µM)	> 25	< 0.01	> 25	3 (≈ 5.96 µM)	0.03 (≈ 0.0596 µM)	3 (≈ 5.96 µM)	0.03 (≈ 0.0596 µM)	3 (≈ 5.96 µM)	MIC [3]: 0.75 µg/mL (≈ 1.49 µM); Activity [15]: inactive; Activity [16]: inactive; MIC [19]: 7.5 µg/mL (≈ 14.9 µM); LD50 [25]: 90 mg/kg; MIC [26]: 0.75 µg/mL (≈ 1.49 µM); MIC [27]: 0.03 µg/mL (≈ 0.0596 µM); Activity [28]: inactive; MIC [29]: 7.5 µg/mL (≈ 14.9 µM); MIC [30]: 7.5 µg/mL (≈ 14.9 µM)
CN[C@@H]1[C@@H](O)[C@@H](O[C@@H]2[C@@H](O)[C@H](O[C@H]3OC(CN)=CC[C@H]3N)[C@@H](N)C[C@H]2N)OC[C@]1(C)O [SISOMICIN]	0.3 (≈ 0.67 µM)	17.5 (≈ 39.1 µM)	0.3 (≈ 0.67 µM)	0.75 (≈ 1.68 µM)	3 (≈ 6.7 µM)	7.5 (≈ 16.8 µM)	0.3 (≈ 0.67 µM)	7.5 (≈ 16.8 µM)	3 (≈ 6.7 µM)	7.5 (≈ 16.8 µM)	17.5 (≈ 39.1 µM)	0.3 (≈ 0.67 µM)	> 25	< 0.01	17.5 (≈ 39.1 µM)	0.3 (≈ 0.67 µM)	0.03 (≈ 0.067 µM)	7.5 (≈ 16.8 µM)	0.03 (≈ 0.067 µM)	7.5 (≈ 16.8 µM)	MIC [3]: 0.03 µg/mL (≈ 0.067 µM); Activity [15]: Active; Activity [16]: Active; MIC [19]: 3 µg/mL (≈ 6.7 µM); LD50 [25]: 34 mg/kg; MIC [26]: 0.75 µg/mL (≈ 1.68 µM); MIC [27]: 0.03 µg/mL (≈ 0.067 µM); Activity [28]: Active; MIC [29]: 7.5 µg/mL (≈ 16.8 µM); MIC [30]: 0.3 µg/mL (≈ 0.67 µM)
CN[C@@H]1[C@@H](O)[C@@H](O[C@@H]2[C@@H](O)[C@H](O[C@H]3OC(CNCCO)=CC[C@H]3N)[C@@H](N)C[C@H]2N)OC[C@]1(C)O	0.3 (≈ 0.61 µM)	> 25	0.075 (≈ 0.153 µM)	3 (≈ 6.1 µM)	> 25	7.5 (≈ 15.3 µM)	0.3 (≈ 0.61 µM)	17.5 (≈ 35.6 µM)	0.75 (≈ 1.53 µM)	> 25	> 25	0.3 (≈ 0.61 µM)	> 25	0.3 (≈ 0.61 µM)	> 25	0.75 (≈ 1.53 µM)	0.03 (≈ 0.061 µM)	17.5 (≈ 35.6 µM)	0.03 (≈ 0.061 µM)	0.75 (≈ 1.53 µM)	Activity [15]: inactive; Activity [16]: inactive; LD50 [25]: 135 mg/kg; MIC [26]: 0.075 µg/mL (≈ 0.153 µM); MIC [27]: 0.03 µg/mL (≈ 0.061 µM); Activity [28]: inactive; MIC [29]: 0.3 µg/mL (≈ 0.61 µM); MIC [30]: 0.75 µg/mL (≈ 1.53 µM)
CNCC1=CC[C@@H](N)[C@@H](O[C@H]2[C@H](O)[C@@H](O[C@H]3OC[C@](C)(O)[C@H](NC)[C@H]3O)[C@H](N)C[C@@H]2N)O1	0.75 (≈ 1.62 µM)	3 (≈ 6.5 µM)	0.075 (≈ 0.162 µM)	0.75 (≈ 1.62 µM)	> 25	17.5 (≈ 37.9 µM)	0.3 (≈ 0.65 µM)	> 25	3 (≈ 6.5 µM)	> 25	> 25	0.3 (≈ 0.65 µM)	> 25	< 0.01	> 25	3 (≈ 6.5 µM)	< 0.01	0.3 (≈ 0.65 µM)	< 0.01	0.75 (≈ 1.62 µM)	MIC [3]: 0.03 µg/mL (≈ 0.065 µM); Activity [15]: inactive; Activity [16]: inactive; MIC [19]: 0.3 µg/mL (≈ 0.65 µM); LD50 [25]: 50 mg/kg; MIC [26]: 0.3 µg/mL (≈ 0.65 µM); MIC [27]: 0.03 µg/mL (≈ 0.065 µM); Activity [28]: inactive; MIC [29]: 0.3 µg/mL (≈ 0.65 µM); MIC [30]: 0.3 µg/mL (≈ 0.65 µM)
CN[C@@H]1[C@@H](O)[C@@H](O[C@@H]2[C@@H](O)[C@H](O[C@H]3OC(CO)=CC[C@H]3N)[C@@H](N)C[C@H]2N)OC[C@]1(C)O	3 (≈ 6.69 µM)	> 25	3 (≈ 6.69 µM)	17.5 (≈ 39 µM)	> 25	> 25	3 (≈ 6.69 µM)	> 25	> 25	> 25	> 25	17.5 (≈ 39 µM)	> 25	0.075 (≈ 0.167 µM)	> 25	3 (≈ 6.69 µM)	0.3 (≈ 0.669 µM)	> 25	0.3 (≈ 0.669 µM)	0.3 (≈ 0.669 µM)	Activity [31]: inactive; MIC [3]: 0.075 µg/mL (≈ 0.167 µM); Activity [32]: inactive; MIC [15]: 10 µg/mL (≈ 22.3 µM); Activity [33]: inactive; MIC [19]: > 25 µg/mL; LD50 [25]: 65 mg/kg; MIC [26]: 0.75 µg/mL (≈ 1.67 µM); MIC [27]: 0.3 µg/mL (≈ 0.669 µM); Activity [34]: inactive; MIC [28]: < 10 µg/mL; MIC [29]: > 25 µg/mL; MIC [30]: 3 µg/mL (≈ 6.69 µM)
